{"source": "patent US9738634B2", "about": "“Heterocyclic amide compound and herbicide” (SYNGENTA PARTICIPATIONS AG, priority 2013, dated 2017)", "assay_type_in_all_cases": "in vivo", "conditions_in_all_cases": "treatment dosage 315 g/ha", "key": {"black-grass [1]": {"tested_on": "black-grass", "assay": "Test Example 4: weedkilling efficacy by foliar treatment; H: black-grass", "how_it_was_run": "(§1)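 Seeds are spot-sown into sterilized diluvial soil and covered with about 1.5 cm of soil. After 14 days' greenhouse growth at 25 to 30° C, plants are sprayed on stems and leaves with diluted emulsion at the stated g/ha rate, then scored at 3 weeks.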"}, "green foxtail [2]": {"tested_on": "green foxtail", "assay": "Test Example 4: weedkilling efficacy by foliar treatment; E: green foxtail", "how_it_was_run": "as §1"}, "chickweed [3]": {"tested_on": "chickweed", "assay": "Test Example 3: weedkilling efficacy through soil treatment; N: chickweed", "how_it_was_run": "(§2)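 Crop and weed responses were judged three weeks after a uniform surface spray of the water-diluted emulsion at the given g/ha rate. Seeds sat beneath about 1.5 cm of sterilized diluvial soil, and boxes stood in a greenhouse at 25 to 30° C.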"}, "directly sown rice [4]": {"tested_on": "directly sown rice", "assay": "Test Example 3: soil treatment, effect on crop; b: directly sown rice", "how_it_was_run": "as §2"}, "Indian mallow [5]": {"tested_on": "Indian mallow", "assay": "Test Example 4: weedkilling efficacy by foliar treatment; K: Indian mallow", "how_it_was_run": "as §1"}, "corn [6]": {"tested_on": "corn", "assay": "Test Example 3: soil treatment, effect on crop; c: corn", "how_it_was_run": "as §2"}, "soybean [7]": {"tested_on": "soybean", "assay": "Test Example 3: soil treatment, effect on crop; d: soybean", "how_it_was_run": "as §2"}, "corn [8]": {"tested_on": "corn", "assay": "Test Example 4: foliar treatment, effect on crop; c: corn", "how_it_was_run": "as §1"}, "Italian ryegrass [9]": {"tested_on": "Italian ryegrass", "assay": "Test Example 4: weedkilling efficacy by foliar treatment; I: Italian ryegrass", "how_it_was_run": "as §1"}, "fig-leafed goosefoot [10]": {"tested_on": "fig-leafed goosefoot", "assay": "Test Example 3: weedkilling efficacy through soil treatment; M: fig-leafed goosefoot", "how_it_was_run": "as §2"}, "fig-leafed goosefoot [11]": {"tested_on": "fig-leafed goosefoot", "assay": "Test Example 4: weedkilling efficacy by foliar treatment; M: fig-leafed goosefoot", "how_it_was_run": "as §1"}, "crabgrass [12]": {"tested_on": "crabgrass", "assay": "Test Example 4: weedkilling efficacy by foliar treatment; D: crabgrass", "how_it_was_run": "as §1"}, "wheat [13]": {"tested_on": "wheat", "assay": "Test Example 4: foliar treatment, effect on crop; e: wheat", "how_it_was_run": "as §1"}, "beet [14]": {"tested_on": "beet", "assay": "Test Example 3: soil treatment, effect on crop; f: beet", "how_it_was_run": "as §2"}, "redroot pigweed [15]": {"tested_on": "redroot pigweed", "assay": "Test Example 3: weedkilling efficacy through soil treatment; L: redroot pigweed", "how_it_was_run": "as §2"}, "directly sown rice [16]": {"tested_on": "directly sown rice", "assay": "Test Example 4: foliar treatment, effect on crop; b: directly sown rice", "how_it_was_run": "as §1"}, "wheat [17]": {"tested_on": "wheat", "assay": "Test Example 3: soil treatment, effect on crop; e: wheat", "how_it_was_run": "as §2"}, "redroot pigweed [18]": {"tested_on": "redroot pigweed", "assay": "Test Example 4: weedkilling efficacy by foliar treatment; L: redroot pigweed", "how_it_was_run": "as §1"}, "wild oat [19]": {"tested_on": "wild oat", "assay": "Test Example 4: weedkilling efficacy by foliar treatment; G: wild oat", "how_it_was_run": "as §1"}, "birds-eye speedwell [20]": {"tested_on": "birds-eye speedwell", "assay": "Test Example 3: weedkilling efficacy through soil treatment; p: birds-eye speedwell", "how_it_was_run": "as §2"}, "crabgrass [21]": {"tested_on": "crabgrass", "assay": "Test Example 3: weedkilling efficacy through soil treatment; D: crabgrass", "how_it_was_run": "as §2"}, "green foxtail [22]": {"tested_on": "green foxtail", "assay": "Test Example 3: weedkilling efficacy through soil treatment; E: green foxtail", "how_it_was_run": "as §2"}, "Italian ryegrass [23]": {"tested_on": "Italian ryegrass", "assay": "Test Example 3: weedkilling efficacy through soil treatment; I: Italian ryegrass", "how_it_was_run": "as §2"}, "Indian mallow [24]": {"tested_on": "Indian mallow", "assay": "Test Example 3: weedkilling efficacy through soil treatment; K: Indian mallow", "how_it_was_run": "as §2"}, "chickweed [25]": {"tested_on": "chickweed", "assay": "Test Example 4: weedkilling efficacy by foliar treatment; N: chickweed", "how_it_was_run": "as §1"}, "catchweed [26]": {"tested_on": "catchweed", "assay": "Test Example 4: weedkilling efficacy by foliar treatment; O: catchweed", "how_it_was_run": "as §1"}, "wild oat [27]": {"tested_on": "wild oat", "assay": "Test Example 3: weedkilling efficacy through soil treatment; G: wild oat", "how_it_was_run": "as §2"}, "birds-eye speedwell [28]": {"tested_on": "birds-eye speedwell", "assay": "Test Example 4: weedkilling efficacy by foliar treatment; p: birds-eye speedwell", "how_it_was_run": "as §1"}, "black-grass [29]": {"tested_on": "black-grass", "assay": "Test Example 3: weedkilling efficacy through soil treatment; H: black-grass", "how_it_was_run": "as §2"}, "catchweed [30]": {"tested_on": "catchweed", "assay": "Test Example 3: weedkilling efficacy through soil treatment; O: catchweed", "how_it_was_run": "as §2"}, "soybean [31]": {"tested_on": "soybean", "assay": "Test Example 4: foliar treatment, effect on crop; d: soybean", "how_it_was_run": "as §1"}, "beet [32]": {"tested_on": "beet", "assay": "Test Example 4: foliar treatment, effect on crop; f: beet", "how_it_was_run": "as §1"}}, "data": [{"smiles": "CC1=C(c2cccnc2F)C(=O)N(C(C)(C)C(=O)Nc2cc(C(F)(F)F)ccn2)CO1", "note": "[B-2-17, 2-[5-(2-fluoropyridin-3-yl)-6-methyl-4-oxo-2H-1,3-oxazin-3(4H)-yl]-2-methyl-N-[4-(trifluoromethyl)pyridin-2-yl] propionamide]", "values": [{"measurement": "H (black-grass) weedkilling efficacy grade", "setting": "black-grass [1]", "value": "4 (weed kill ratio 70% or more, less than 90%)"}, {"measurement": "E (green foxtail) weedkilling efficacy grade", "setting": "green foxtail [2]", "value": "5 (weed kill ratio 90% or more, (practically complete withering))"}, {"measurement": "N (chickweed) weedkilling efficacy grade", "setting": "chickweed [3]", "value": "3 (weed kill ratio 40% or more, less than 70%)"}, {"measurement": "b (directly sown rice) effect on crop grade", "setting": "directly sown rice [4]", "value": "4 (weed kill ratio 70% or more, less than 90%)"}, {"measurement": "K (Indian mallow) weedkilling efficacy grade", "setting": "Indian mallow [5]", "value": "1 (weed kill ratio 5% or more, less than 20%)"}, {"measurement": "c (corn) effect on crop grade", "setting": "corn [6]", "value": "2 (weed kill ratio 20% or more, less than 40%)"}, {"measurement": "d (soybean) effect on crop grade", "setting": "soybean [7]", "value": "2 (weed kill ratio 20% or more, less than 40%)"}, {"measurement": "c (corn) effect on crop grade", "setting": "corn [8]", "value": "3 (weed kill ratio 40% or more, less than 70%)"}, {"measurement": "I (Italian ryegrass) weedkilling efficacy grade", "setting": "Italian ryegrass [9]", "value": "5 (weed kill ratio 90% or more, (practically complete withering))"}, {"measurement": "M (fig-leafed goosefoot) weedkilling efficacy grade", "setting": "fig-leafed goosefoot [10]", "value": "3 (weed kill ratio 40% or more, less than 70%)"}, {"measurement": "M (fig-leafed goosefoot) weedkilling efficacy grade", "setting": "fig-leafed goosefoot [11]", "value": "2 (weed kill ratio 20% or more, less than 40%)"}, {"measurement": "D (crabgrass) weedkilling efficacy grade", "setting": "crabgrass [12]", "value": "5 (weed kill ratio 90% or more, (practically complete withering))"}, {"measurement": "e (wheat) effect on crop grade", "setting": "wheat [13]", "value": "0 (weed kill ratio 5% or less (practically no effect))"}, {"measurement": "f (beet) effect on crop grade", "setting": "beet [14]", "value": "0 (weed kill ratio 5% or less (practically no effect))"}, {"measurement": "L (redroot pigweed) weedkilling efficacy grade", "setting": "redroot pigweed [15]", "value": "2 (weed kill ratio 20% or more, less than 40%)"}, {"measurement": "b (directly sown rice) effect on crop grade", "setting": "directly sown rice [16]", "value": "5 (weed kill ratio 90% or more, (practically complete withering))"}, {"measurement": "e (wheat) effect on crop grade", "setting": "wheat [17]", "value": "1 (weed kill ratio 5% or more, less than 20%)"}, {"measurement": "L (redroot pigweed) weedkilling efficacy grade", "setting": "redroot pigweed [18]", "value": "3 (weed kill ratio 40% or more, less than 70%)"}, {"measurement": "G (wild oat) weedkilling efficacy grade", "setting": "wild oat [19]", "value": "4 (weed kill ratio 70% or more, less than 90%)"}, {"measurement": "P (birds-eye speedwell) weedkilling efficacy grade", "setting": "birds-eye speedwell [20]", "value": "5 (weed kill ratio 90% or more, (practically complete withering))"}, {"measurement": "D (crabgrass) weedkilling efficacy grade", "setting": "crabgrass [21]", "value": "5 (weed kill ratio 90% or more, (practically complete withering))"}, {"measurement": "E (green foxtail) weedkilling efficacy grade", "setting": "green foxtail [22]", "value": "5 (weed kill ratio 90% or more, (practically complete withering))"}, {"measurement": "I (Italian ryegrass) weedkilling efficacy grade", "setting": "Italian ryegrass [23]", "value": "5 (weed kill ratio 90% or more, (practically complete withering))"}, {"measurement": "K (Indian mallow) weedkilling efficacy grade", "setting": "Indian mallow [24]", "value": "2 (weed kill ratio 20% or more, less than 40%)"}, {"measurement": "N (chickweed) weedkilling efficacy grade", "setting": "chickweed [25]", "value": "2 (weed kill ratio 20% or more, less than 40%)"}, {"measurement": "O (catchweed) weedkilling efficacy grade", "setting": "catchweed [26]", "value": "0 (weed kill ratio 5% or less (practically no effect))"}, {"measurement": "G (wild oat) weedkilling efficacy grade", "setting": "wild oat [27]", "value": "5 (weed kill ratio 90% or more, (practically complete withering))"}, {"measurement": "P (birds-eye speedwell) weedkilling efficacy grade", "setting": "birds-eye speedwell [28]", "value": "2 (weed kill ratio 20% or more, less than 40%)"}, {"measurement": "H (black-grass) weedkilling efficacy grade", "setting": "black-grass [29]", "value": "5 (weed kill ratio 90% or more, (practically complete withering))"}, {"measurement": "O (catchweed) weedkilling efficacy grade", "setting": "catchweed [30]", "value": "1 (weed kill ratio 5% or more, less than 20%)"}, {"measurement": "d (soybean) effect on crop grade", "setting": "soybean [31]", "value": "0 (weed kill ratio 5% or less (practically no effect))"}, {"measurement": "f (beet) effect on crop grade", "setting": "beet [32]", "value": "2 (weed kill ratio 20% or more, less than 40%)"}]}]}
